Laboratory results: ChEMBL document CHEMBL1201862, “PubChem BioAssay data set” (2004)
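Following 48 hours of exposure in 96-well plates, responses at five concentrations were used to interpolate endpoints linearly. At the GI50, growth is halved.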 Active and inactive are the calls of the source. Rule as the data show it: active = GI50 up to about 1.1 µM and inactive = higher.

How the values were obtained:
Experiment in all cases: inhibition of tumour cell growth, NCI panel, 48 h
OVCAR-4 = test system: OVCAR-4
MDA-N = test system: MDA-N
SR = test system: SR
RPMI-8226 = test system: RPMI-8226
CCRF-CEM = test system: CCRF-CEM
SF-295 = test system: SF-295
RXF 393 = test system: RXF 393
NCI-H226 = test system: NCI-H226
NCI/ADR-RES = test system: NCI/ADR-RES
SW-620 = test system: SW-620
NCI-H23 = test system: NCI-H23
OVCAR-8 = test system: OVCAR-8
COLO 205 = test system: COLO 205
MDA-MB-435 = test system: MDA-MB-435
SN12C = test system: SN12C
UO-31 = test system: UO-31
NCI-H522 = test system: NCI-H522
HOP-92 = test system: HOP-92
MOLT-4 = test system: MOLT-4
SK-MEL-2 = test system: SK-MEL-2
DU-145 = test system: DU-145
786-0 = test system: 786-0
SK-OV-3 = test system: SK-OV-3
BT-549 = test system: BT-549
UACC-257 = test system: UACC-257
TK-10 = test system: TK-10
T47D = test system: T47D
KM12 = test system: KM12
SNB-19 = test system: SNB-19
CAKI-1 = test system: CAKI-1
HT-29 = test system: HT-29
SF-268 = test system: SF-268
Hs-578T = test system: Hs-578T
U-251 = test system: U-251
HOP-62 = test system: HOP-62
ACHN = test system: ACHN
HCT-15 = test system: HCT-15
A498 = test system: A498
OVCAR-3 = test system: OVCAR-3
Malme-3M = test system: Malme-3M
M14 = test system: M14
UACC-62 = test system: UACC-62
K562 = test system: K562
MCF7 = test system: MCF7
LOX IMVI = test system: LOX IMVI
HCT-116 = test system: HCT-116
OVCAR-5 = test system: OVCAR-5
NCI-H460 = test system: NCI-H460
SNB-75 = test system: SNB-75
MDA-MB-231 = test system: MDA-MB-231
SK-MEL-28 = test system: SK-MEL-28
A549 = test system: A549
PC-3 = test system: PC-3
IGROV-1 = test system: IGROV-1
SK-MEL-5 = test system: SK-MEL-5
EKVX = test system: EKVX
HCC 2998 = test system: HCC 2998
HL-60 = test system: HL-60

Q: With CN(C(=O)Nc1ccc(Cl)c(Cl)c1)C1CCCC[C@@H]1N1CCCC1 (some centres not stated) as the compound, how does the GI50 (OVCAR-4) read?
A: 41.9 µM (inactive)

Q: What about the GI50 (MDA-N) of the same compound?
A: 34 µM (inactive)

Q: And the GI50 (SR)?
A: 21 µM (inactive)

Q: And the GI50 (RPMI-8226)?
A: 24.7 µM (inactive)

Q: And the GI50 (CCRF-CEM)?
A: 30.5 µM (inactive)

Q: And the GI50 (SF-295)?
A: 84.7 µM (inactive)

Q: And the GI50 (RXF 393)?
A: 37.7 µM (inactive)

Q: And the GI50 (NCI-H226)?
A: 0.092 µM (active)

Q: What about the GI50 (NCI/ADR-RES) of the same compound?
A: 72.4 µM (inactive)

Q: What about the GI50 (SW-620) of the same compound?
A: 63.7 µM (inactive)

Q: And the GI50 (NCI-H23)?
A: > 100 µM (inactive)

Q: And the GI50 (OVCAR-8)?
A: 79.3 µM (inactive)

Q: What about the GI50 (COLO 205) of the same compound?
A: 18.1 µM (inactive)

Q: What about the GI50 (MDA-MB-435) of the same compound?
A: 33 µM (inactive)

Q: And the GI50 (SN12C)?
A: > 100 µM (inactive)

Q: What about the GI50 (UO-31) of the same compound?
A: 19.3 µM (inactive)

Q: And the GI50 (NCI-H522)?
A: 41.7 µM (inactive)

Q: What about the GI50 (HOP-92) of the same compound?
A: 34.4 µM (inactive)

Q: What about the GI50 (MOLT-4) of the same compound?
A: 19.6 µM (inactive)

Q: What about the GI50 (SK-MEL-2) of the same compound?
A: 38.3 µM (inactive)

Q: What about the GI50 (DU-145) of the same compound?
A: 58.6 µM (inactive)

Q: What about the GI50 (786-0) of the same compound?
A: 48.6 µM (inactive)

Q: What about the GI50 (SK-OV-3) of the same compound?
A: > 100 µM (inactive)

Q: What about the GI50 (BT-549) of the same compound?
A: 22.4 µM (inactive)

Q: What about the GI50 (UACC-257) of the same compound?
A: 18.8 µM (inactive)

Q: What about the GI50 (TK-10) of the same compound?
A: 33.3 µM (inactive)

Q: And the GI50 (T47D)?
A: 39.6 µM (inactive)

Q: What about the GI50 (KM12) of the same compound?
A: 39.5 µM (inactive)

Q: What about the GI50 (SNB-19) of the same compound?
A: 66.7 µM (inactive)

Q: What about the GI50 (CAKI-1) of the same compound?
A: 70.6 µM (inactive)

Q: What about the GI50 (HT-29) of the same compound?
A: 29.4 µM (inactive)

Q: What about the GI50 (SF-268) of the same compound?
A: 31.6 µM (inactive)

Q: And the GI50 (Hs-578T)?
A: 33.7 µM (inactive)

Q: What about the GI50 (U-251) of the same compound?
A: 53.7 µM (inactive)

Q: What about the GI50 (HOP-62) of the same compound?
A: > 100 µM (inactive)

Q: And the GI50 (ACHN)?
A: 52 µM (inactive)

Q: What about the GI50 (HCT-15) of the same compound?
A: 41.4 µM

Q: And the GI50 (A498)?
A: 24.2 µM (inactive)

Q: What about the GI50 (OVCAR-3) of the same compound?
A: 76.6 µM (inactive)

Q: What about the GI50 (Malme-3M) of the same compound?
A: 22 µM (inactive)

Q: What about the GI50 (M14) of the same compound?
A: 19.1 µM (inactive)

Q: And the GI50 (UACC-62)?
A: 22.9 µM (inactive)

Q: And the GI50 (K562)?
A: 24.2 µM (inactive)

Q: What about the GI50 (MCF7) of the same compound?
A: 33.6 µM (inactive)

Q: What about the GI50 (LOX IMVI) of the same compound?
A: 30.3 µM (inactive)

Q: What about the GI50 (HCT-116) of the same compound?
A: 51.8 µM (inactive)

Q: And the GI50 (OVCAR-5)?
A: 32.4 µM (inactive)

Q: What about the GI50 (NCI-H460) of the same compound?
A: 36.6 µM (inactive)

Q: What about the GI50 (SNB-75) of the same compound?
A: 40.2 µM (inactive)

Q: What about the GI50 (MDA-MB-231) of the same compound?
A: 47.9 µM (inactive)

Q: And the GI50 (SK-MEL-28)?
A: 21.7 µM (inactive)

Q: What about the GI50 (A549) of the same compound?
A: 61.2 µM (inactive)

Q: What about the GI50 (PC-3) of the same compound?
A: 41.4 µM (inactive)

Q: What about the GI50 (IGROV-1) of the same compound?
A: 41.3 µM (inactive)

Q: What about the GI50 (SK-MEL-5) of the same compound?
A: 16.3 µM (inactive)

Q: And the GI50 (EKVX)?
A: 47.5 µM (inactive)

Q: CCOC(=O)Nc1sc2c(c1C#N)CC(C)CC2 (configuration not stated) was tested. Which GI50 (OVCAR-4) did it give?
A: 18.7 µM (inactive)

Q: What about the GI50 (MDA-N) of the same compound?
A: 1.6 µM (inactive)

Q: And the GI50 (SR)?
A: 1.4 µM (inactive)

Q: What about the GI50 (RPMI-8226) of the same compound?
A: 4.86 µM (inactive)

Q: What about the GI50 (SF-295) of the same compound?
A: 11.6 µM (inactive)

Q: And the GI50 (RXF 393)?
A: 5.38 µM (inactive)

Q: And the GI50 (HCC 2998)?
A: 2.24 µM (inactive)

Q: And the GI50 (NCI-H226)?
A: 6.15 µM (inactive)

Q: And the GI50 (NCI/ADR-RES)?
A: 1.96 µM (inactive)

Q: And the GI50 (SW-620)?
A: 4.74 µM (inactive)

Q: What about the GI50 (NCI-H23) of the same compound?
A: 25.6 µM (inactive)

Q: And the GI50 (OVCAR-8)?
A: 8.75 µM (inactive)

Q: What about the GI50 (COLO 205) of the same compound?
A: 4.17 µM (inactive)

Q: And the GI50 (MDA-MB-435)?
A: 1.32 µM (inactive)

Q: What about the GI50 (SN12C) of the same compound?
A: 9.62 µM (inactive)

Q: What about the GI50 (UO-31) of the same compound?
A: 8.91 µM (inactive)

Q: And the GI50 (NCI-H522)?
A: 1.25 µM (inactive)

Q: What about the GI50 (HOP-92) of the same compound?
A: 25.4 µM (inactive)

Q: What about the GI50 (MOLT-4) of the same compound?
A: 4.9 µM (inactive)

Q: And the GI50 (SK-MEL-2)?
A: 2.16 µM (inactive)

Q: And the GI50 (DU-145)?
A: 20.9 µM (inactive)

Q: What about the GI50 (786-0) of the same compound?
A: 10.1 µM (inactive)

Q: What about the GI50 (HL-60) of the same compound?
A: 0.1 µM (active)

Q: What about the GI50 (SK-OV-3) of the same compound?
A: 23 µM (inactive)

Q: What about the GI50 (BT-549) of the same compound?
A: 19.7 µM (inactive)

Q: What about the GI50 (UACC-257) of the same compound?
A: 11 µM (inactive)

Q: And the GI50 (TK-10)?
A: 6.62 µM (inactive)

Q: What about the GI50 (T47D) of the same compound?
A: 10.5 µM (inactive)

Q: And the GI50 (KM12)?
A: 3.9 µM (inactive)

Q: And the GI50 (SNB-19)?
A: 3.16 µM (inactive)

Q: And the GI50 (CAKI-1)?
A: 21.8 µM (inactive)

Q: What about the GI50 (HT-29) of the same compound?
A: 3.06 µM (inactive)

Q: What about the GI50 (SF-268) of the same compound?
A: 10.7 µM (inactive)

Q: And the GI50 (Hs-578T)?
A: 8.59 µM (inactive)

Q: And the GI50 (U-251)?
A: 5.42 µM (inactive)

Q: And the GI50 (HOP-62)?
A: 9.79 µM (inactive)

Q: And the GI50 (ACHN)?
A: 14.7 µM (inactive)

Q: What about the GI50 (HCT-15) of the same compound?
A: 2.75 µM

Q: And the GI50 (OVCAR-3)?
A: 5.87 µM (inactive)

Q: And the GI50 (Malme-3M)?
A: 8.55 µM (inactive)

Q: What about the GI50 (M14) of the same compound?
A: 2.66 µM (inactive)

Q: And the GI50 (UACC-62)?
A: 4.49 µM (inactive)

Q: And the GI50 (K562)?
A: 2.38 µM (inactive)

Q: And the GI50 (MCF7)?
A: 3.96 µM (inactive)

Q: And the GI50 (LOX IMVI)?
A: 10.2 µM (inactive)

Q: What about the GI50 (HCT-116) of the same compound?
A: 4 µM (inactive)

Q: What about the GI50 (OVCAR-5) of the same compound?
A: 16.3 µM (inactive)

Q: What about the GI50 (NCI-H460) of the same compound?
A: 3.41 µM (inactive)

Q: And the GI50 (SNB-75)?
A: 2.82 µM (inactive)

Q: And the GI50 (MDA-MB-231)?
A: 5.56 µM (inactive)

Q: And the GI50 (SK-MEL-28)?
A: 17.1 µM (inactive)

Q: And the GI50 (A549)?
A: 5.06 µM (inactive)

Q: And the GI50 (PC-3)?
A: 5.35 µM (inactive)

Q: What about the GI50 (IGROV-1) of the same compound?
A: 7.52 µM (inactive)

Q: And the GI50 (SK-MEL-5)?
A: 4.8 µM (inactive)

Q: What about the GI50 (EKVX) of the same compound?
A: 24.7 µM (inactive)
